Measured values from US20110082130A1 (LIGAND PHARMACEUTICALS, INC., priority 2006, published 2011).
pKi: −log10 of the molar value.

Molecular target: T1, chimeric human H3 receptor (Homo sapiens, UniProt Q9Y5N1)
T1 construct: made in house; host or cells: Sf9 insect cells (baculovirus); P2 membrane preparation
Assay: Chimeric human H3 receptor GTP binding assay (agonist-stimulated GTP-gamma35S binding, Example 7)
Type: biochemical
Procedure, shortened: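 Sf9 membranes co-expressing chimeric human H3 receptor and heterotrimeric G-protein, 35 μg/tube, in pH 7.4 Tris buffer with 10 μM GDP. Test compounds (10^−10–10^−6 M) competed against 1 μM histamine, […] GTP-gamma35S, 60 min at room temperature. Filter-bound radioactivity counted; IC50 converted to Ki by Cheng-Prusoff. Agonism/inverse agonism tested without histamine (EC50).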

[1] = Table II, "*" = Ki in assay of Example 7 less than 1 micromolar
[2] = Table I, P2 membranes of Sf9 cells, 1 μM histamine as agonist, Ki from IC50 by Cheng-Prusoff
[3] = assay of Example 7, "*" in Ki of Table II
[4] = Table II "Ki", symbol *, assay of Example 7

T1 sequence (Q9Y5N1 with tags, fused parts or gaps): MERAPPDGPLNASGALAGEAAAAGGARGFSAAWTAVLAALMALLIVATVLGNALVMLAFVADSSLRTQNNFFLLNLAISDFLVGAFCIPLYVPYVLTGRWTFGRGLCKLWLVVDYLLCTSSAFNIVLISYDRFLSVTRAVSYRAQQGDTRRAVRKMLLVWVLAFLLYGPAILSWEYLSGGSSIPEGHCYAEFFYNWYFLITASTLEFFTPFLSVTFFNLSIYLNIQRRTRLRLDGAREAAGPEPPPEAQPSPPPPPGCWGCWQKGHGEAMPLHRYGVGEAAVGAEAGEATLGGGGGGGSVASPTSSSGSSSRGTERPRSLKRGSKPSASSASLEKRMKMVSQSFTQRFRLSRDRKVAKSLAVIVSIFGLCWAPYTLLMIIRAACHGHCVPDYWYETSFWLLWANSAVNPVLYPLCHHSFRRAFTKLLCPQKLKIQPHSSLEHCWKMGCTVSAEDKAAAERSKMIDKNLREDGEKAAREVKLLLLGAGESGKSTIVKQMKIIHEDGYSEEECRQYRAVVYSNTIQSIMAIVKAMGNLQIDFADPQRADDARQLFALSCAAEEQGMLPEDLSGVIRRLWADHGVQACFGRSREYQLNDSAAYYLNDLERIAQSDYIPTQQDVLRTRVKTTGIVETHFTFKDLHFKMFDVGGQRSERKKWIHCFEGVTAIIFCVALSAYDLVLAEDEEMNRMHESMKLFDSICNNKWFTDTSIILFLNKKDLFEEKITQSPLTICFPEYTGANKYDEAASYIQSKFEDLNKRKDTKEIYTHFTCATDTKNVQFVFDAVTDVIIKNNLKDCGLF

pKi [1] | Structure (SMILES) | also measured
> 6.00 | CS(=O)(=O)c1ccc(-c2nc3c(s2)CCN(CC(=O)N2CCN(C4CCC4)CC2)C3)cc1 [Compound 105, 5-[2-(4-cyclobutylpiperazin-1-yl)-2-oxoethyl]-2-[4-(methylsulfonyl)phenyl]-4,5,6,7-tetrahydro[1,3]thiazolo [4,5-c]pyridine] | 
> 6.00 | CSc1nc2c(o1)CN(CC(=O)N1CCN(C3CCC3)CC1)CC2 [Compound 107, 5-[2-(4-cyclobutylpiperazin-1-yl)-2-oxoethyl]-2-(methylthio)-4,5,6,7-tetrahydro[1.3]oxazolo [5,4-c]pyridine] | 
 | COc1cc2c(cc1OC)CN(CC(=O)N1CCN(C(C)C)CC1)CC2 [Compound 49, 2-[2-(4-isopropylpiperazin-1-yl)-2-oxoethyl]-6,7-dimethoxy-1,2,3,4-tetrahydroisoquinoline] | pKi [2]: > 6.00
 | COc1ccc(-c2nc3c(s2)CN(CC(=O)N2CCN(C4CCC4)CC2)CC3)cc1OC [Compound 329, 5-[2-(4-cyclobutylpiperazin-1-yl)-2-oxoethyl]-2-(3,4-dimethoxyphenyl)-4,5,6,7-tetrahydro[1,3]thiazolo [5,4-c]pyridine] | pKi [3]: > 6.00
> 6.00 | COc1ccc(-n2cc3c(n2)CCN(CC(=O)N2CCN(C4CCC4)CC2)C3)cc1 [Compound 238, 5-[2-(4-cyclobutylpiperazin-1-yl)-2-oxoethyl]-2-(4-methoxyphenyl)-4,5,6,7-tetrahydro-2H-pyrazolo[4,3-c]pyridine] | 
> 6.00 | O=C(CN1CCc2cc(-n3cccn3)ccc2C1)N1CCN(C2CCC2)CC1 [Compound 122, 2-[2-(4-cyclobutylpiperazin-1-yl)-2-oxoethyl]-6-(1H-pyrazol-1-yl)-1,2,3,4-tetrahydroisoquinoline] | 
 | COc1ccc(C)cc1-c1nc2c(s1)CN(CC(=O)N1CCN(C3CCC3)CC1)CC2 [Compound 344, 5-[2-(4-cyclobutylpiperazin-1-yl)-2-oxoethyl]-2-(2-methoxy-5-methylphenyl)-4,5,6,7-tetrahydro[1,3]thiazolo [5,4-c]pyridine] | pKi [3]: > 6.00
> 6.00 | O=C(CN1CCc2cc(Br)ccc2C1)N1CCN2CCCCC2C1 (stereo not drawn) [Compound 148, 2-[(6-bromo-3,4-dihydroisoquinolin-2(1H)-yl)acetyl]octahydro-2H-pyrido[1,2-a]pyrazine] | 
> 6.00 | CCC1CCC[C@H]2CN(C(=O)CN3CCc4cc(C(C)=O)ccc4C3)CCN12 (stereo in doubt) [Compound 163, 1-{2-[2-(6-ethyloctahydro-2H-pyrido[1,2-a]pyrazin-2-yl)-2-oxoethyl]-1,2,3,4-tetrahydroisoquinolin-6-yl}ethanone] | 
 | N#Cc1cnc(-n2cc3c(n2)CCN(CC(=O)N2CCN(C4CCC4)CC2)C3)nc1 [Compound 686, 2-{5-[2-(4-cyclobutylpiperazin-1-yl)-2-oxoethyl]-4,5,6,7-tetrahydro-2H-pyrazolo[4,3-c]pyridin-2-yl}pyrimidine-5-carbonitrile] | pKi (Table II, assay of Example 7): > 6.00
> 6.00 | O=C(CN1CCc2ncc(N3CCOCC3)nc2C1)N1CCN(C2CCC2)CC1 [Compound 241, 6-[2-(4-cyclobutylpiperazin-1-yl)-2-oxoethyl]-3-morpholin-4-yl-5,6,7,8-tetrahydropyrido[3,4-b]pyrazine] | 
 | CC(C)Oc1cccc(-c2ccc3c(c2)CCN(CC(=O)N2CCN(C4CCC4)CC2)C3)c1 [Compound 513, 2-[2-(4-cyclobutylpiperazin-1-yl)-2-oxoethyl]-6-(3-isopropoxyphenyl)-1,2,3,4-tetrahydroisoquinoline] | pKi [4]: > 6.00
> 6.00 | CS(=O)(=O)c1cccc(-c2ccc3c(c2)CCN(CC(=O)N2CCN(C4CCC4)CC2)C3)c1 [Compound 84, 2-[2-(4-cyclobutylpiperazin-1-yl)-2-oxoethyl]-6-[3-(methylsulfonyl)phenyl]-1,2,3,4-tetrahydroisoquinoline] | 
> 6.00 | CC(=O)c1nc2c(s1)CN(CC(=O)N1CCN(C3CCC3)CC1)CC2 [Compound 103, 1-{5-[2-(4-cyclobutylpiperazin-1-yl)-2-oxoethyl]-4,5,6,7-tetrahydro[1,3]thiazolo [5,4-c]pyridin-2-yl}ethanone] | 
 | CCC(C)Nc1ccc2c(n1)CCN(CC(=O)N1CCN(C3CCC3)CC1)C2 (stereo not drawn) [Compound 655, N-sec-butyl-6-[2-(4-cyclobutylpiperazin-1-yl)-2-oxoethyl]-5,6,7,8-tetrahydro-1,6-naphthyridin-2-amine] | pKi [4]: > 6.00
 | COc1ccc(-c2ncc3c(n2)CCN(CC(=O)N2CCN(C4CCC4)CC2)C3)cc1 [Compound 76, 6-[2-(4-cyclobutylpiperazin-1-yl)-2-oxoethyl]-2-(4-methoxyphenyl)-5,6,7,8-tetrahydropyrido[4,3-d]pyrimidine] | pKi [2]: > 6.00
> 6.00 | O=C(CN1CCc2cc(-n3ccc(C(F)(F)F)n3)ccc2C1)N1CCN2CCCCC2C1 (stereo not drawn) [Compound 159, 2-({6-[3-(trifluoromethyl)-1H-pyrazol-1-yl]-3,4-dihydroisoquinolin-2(1H)-yl}acetyl)octahydro-2H-pyrido[1,2-a]pyrazine] | 

pKi [1] | Structure (SMILES) | also measured
> 6.00 | CN(C)c1ccc(-n2cc3c(n2)CCN(CC(=O)N2CCN(C4CCC4)CC2)C3)nn1 [Compound 259, 6-{5-[2-(4-cyclobutylpiperazin-1-yl)-2-oxoethyl]-4,5,6,7-tetrahydro-2H-pyrazolo[4,3-c]pyridin-2-yl}-N,N-dimethylpyridazin-3-amine] | 
 | CN(C)CCc1cccc(-c2ccc3c(c2)CCN(CC(=O)N2CCN(C4CCC4)CC2)C3)c1 [Compound 644, 2-(3-{2-[2-(4-cyclobutylpiperazin-1-yl)-2-oxoethyl]-1,2,3,4-tetrahydroisoquinolin-6-yl}phenyl)-N,N-dimethylethanamine] | pKi [4]: > 6.00
 | COc1cc2c(cc1OC)CN(CC(=O)N1CCN(C3CCCC3)CC1)CC2 [Compound 47, 2-[2-(4-cyclopentylpiperazin-1-yl)-2-oxoethyl]-6,7-dimethoxy-1,2,3,4-tetrahydroisoquinoline] | pKi [2]: > 6.00
> 6.00 | O=C(CN1CCc2cc(-c3ncccn3)ccc2C1)N1CCN(C2CCC2)CC1 [Compound 131, 2-[2-(4-cyclobutylpiperazin-1-yl)-2-oxoethyl]-6-pyrimidin-2-yl-1,2,3,4-tetrahydroisoquinoline] | 
 | CN(C)Cc1cccc(-c2ccc3c(c2)CCN(CC(=O)N2CCN(C4CCC4)CC2)C3)c1 [Compound 641, 1-(3-{2-[2-(4-cyclobutylpiperazin-1-yl)-2-oxoethyl]-1,2,3,4-tetrahydroisoquinolin-6-yl}phenyl)-N,N-dimethylmethanamine] | pKi [4]: > 6.00
 | COc1cc2c(cc1OC)CN(CC(=O)N1CCN(C3CCCCC3)CC1)CC2 [Compound 50, 2-[2-(4-cyclohexylpiperazin-1-yl)-2-oxoethyl]-6,7-dimethoxy-1,2,3,4-tetrahydroisoquinoline] | pKi [2]: > 6.00
 | O=C(CN1CCc2nc(C(F)(F)F)ncc2C1)N1CCN(C2CCC2)CC1 [Compound 292, 6-[2-(4-cyclobutylpiperazin-1-yl)-2-oxoethyl]-2-(trifluoromethyl)-5,6,7,8-tetrahydropyrido[4,3-d]pyrimidine] | pKi [3]: > 6.00
> 6.00 | O=C(CN1CCc2cc(-c3cccc(F)c3)nnc2C1)N1CCN(C2CCC2)CC1 [Compound 233, 7-[2-(4-cyclobutylpiperazin-1-yl)-2-oxoethyl]-3-(3-fluorophenyl)-5,6,7,8-tetrahydropyrido[3,4-c]pyridazine] | 
 | COc1ccc(-c2ccc3c(c2)CCN(CC(=O)N2CCN(C4CCC4)CC2)C3)cc1 [Compound 520, 2-[2-(4-cyclobutylpiperazin-1-yl)-2-oxoethyl]-6-(4-methoxyphenyl)-1,2,3,4-tetrahydroisoquinoline] | pKi [4]: > 6.00
 | COc1cc(F)c(-c2nc3c(s2)CN(CC(=O)N2CCN(C4CCC4)CC2)CC3)cc1F [Compound 323, 5-[2-(4-cyclobutylpiperazin-1-yl)-2-oxoethyl]-2-(2,5-difluoro-4-methoxyphenyl)-4,5,6,7-tetrahydro[1,3]thiazolo [5,4-c]pyridine] | pKi [3]: > 6.00
 | O=C(CN1CCn2c(Br)cnc2C1)N1CCN(C2CCC2)CC1 [Compound 81, 3-bromo-7-[2-(4-cyclobutylpiperazin-1-yl)-2-oxoethyl]-5,6,7,8-tetrahydroimidazo[1,2-a]pyrazine] | pKi [2]: > 6.00
> 6.00 | CC1CCC[C@H]2CN(C(=O)CN3CCc4nc(N5CCOCC5)ncc4C3)CCN12 (stereo partly drawn) [Compound 186, 6-[2-(6-methyloctahydro-2H-pyrido[1,2-a]pyrazin-2-yl)-2-oxoethyl]-2-morpholin-4-yl-5,6,7,8-tetrahydropyrido[4,3-d]pyrimidine] | 
> 6.00 | CCC1CCC[C@H]2CN(C(=O)CN3CCc4cc(-n5ccc(C(F)(F)F)n5)ccc4C3)CCN12 (stereo in doubt) [Compound 161, 6-ethyl-2-({6-[3-(trifluoromethyl)-1H-pyrazol-1-yl]-3,4-dihydroisoquinolin-2(1H)-yl}acetyl)octahydro-2H-pyrido[1,2-a]pyrazine] | 
 | COCc1ccc(-c2ccc3c(c2)CCN(CC(=O)N2CCN(C4CCC4)CC2)C3)nc1 [Compound 646, 2-[2-(4-cyclobutylpiperazin-1-yl)-2-oxoethyl]-6-[5-(methoxymethyl)pyridin-2-yl]-1,2,3,4-tetrahydroisoquinoline] | pKi [4]: > 6.00
> 6.00 | CC(=O)c1ccc2c(c1)CCN(CC(=O)N1CCN(C(C)C)CC1)C2 [Compound 141, 1-{2-[2-(4-isopropylpiperazin-1-yl)-2-oxoethyl]-1,2,3,4-tetrahydroisoquinolin-6-yl}ethanone] | 
> 6.00 | Cn1cc(-c2cc3c(s2)CCN(CC(=O)N2CCN(C4CCC4)CC2)C3)ccc1=O [Compound 270, 5-{5-[2-(4-cyclobutylpiperazin-1-yl)-2-oxoethyl]-4,5,6,7-tetrahydrothieno[3,2-c]pyridin-2-yl}-1-methylpyridin-2(1H)-one] | 
